Source: US10695296B2, “Formulations, methods, kit, and dosage forms for improved stability of an active pharmaceutical ingredient” (Asana BioSciences, LLC, priority 2017, dated 2020)
Read-outs that look alike come from different tables or passages of the source.

Experiment: PK characteristics in humans (plasma, LC/MS/MS)
Type: in vivo, human
Details: for Cmax / half-life / Tmax / AUC(0-t): human, plasma; for Cmax: read-out: Cmax; for Tmax: read-out: Tmax
Protocol: A pharmaceutical formulation of the disclosure comprising the active ingredient N-(3-(2-(6-amino-4-(trifluoromethyl)pyridin-3-yl)-4-morpholinopyrido[3,2-d]pyrimidin-6-yl)-2-fluorophenyl)-3-fluoropropane-1-sulfonamide was evaluated for safety/tolerability and preliminary efficacy in eligible human subjects with advanced solid tumors, and the pharmacokinetic (PK) profile of the active ingredient was investigated for each subject. Eligibility criteria for inclusion in this study included:
Fifteen eligible patients were enrolled in total daily dose levels ranging from 10-800 mg per day of the active ingredient, provided as 10-mg, 20-mg, 80-mg and 120-mg tablets for oral administration. Dose escalation is ongoing. All study medication supplies were provided by Asana BioSciences, LLC (Bridgewater, N.J.). The tablets were administered orally every 12-24 hours on an empty stomach (either 1 hour before or 2 hours after a meal or snack) with approximately 240 mL of water. On study days in which there was a single plasma PK sample taken, the subject was instructed to fast for at least 2 hours prior to collection of the PK sample. On study days with multiple plasma PK samples taken, the subject was instructed to fast overnight (at least 8 hours prior to study drug administration) and remain fasting for 2 hours after study drug administration. The date and time of the dose(s) taken prior to or on PK sampling days were collected by the study site or catalogued via a diary card provided to the subject.
An ultra performance liquid chromatographic method was used for the determination of the active ingredient in human EDTA K2 plasma. This method was validated over an analytical range of 0.5 to 500 ng/mL. Calibration standards (CS) and quality control (QC) samples at three or four levels of concentrations were prepared fresh from the appropriate working solutions which were stored at −20° C. The human EDTA K2 plasma used for the preparation of CS and QC samples was obtained from Bioreclamation (Westbury, Pa., USA) and analyzed to determine possible interference with the analyte or the internal standard, and no significant interference was observed. The following parameters were used to determine analyte levels in the plasma samples: […]

[1] = oral, 40 mg, Day 15, 40 mg, n=2, mean
[2] = oral, 40 mg, steady state, 40 QD mg, n=2, mean, cancer patients
[3] = oral, 80 mg, Day 1, 80 mg, n=2, mean
[4] = oral, 80 mg, Day 15, 80 mg, n=2, mean
[5] = oral, 80 mg, steady state, 80 QD mg, n=2, mean, cancer patients
[6] = oral, 240 mg, Day 1, 240 mg, n=2, mean
[7] = oral, 240 mg, Day 15, 240 mg, n=2, mean
[8] = oral, 240 mg, steady state, 240 QD mg, n=2, mean, cancer patients
[9] = oral, 400 mg, Day 1, 400 bid mg, individual subjects
[10] = oral, 400 mg, Day 1, 400 bid mg, mean
[11] = oral, 400 mg, Day 15, 400 QD mg, n=2, mean
[12] = oral, 400 mg, Day 15, 400 bid mg, n=1
[13] = oral, 400 mg, steady state, 400 BID mg, n=1, cancer patients
[14] = oral, 400 mg, steady state, 400 QD mg, n=2, mean, cancer patients

Structure (SMILES): Nc1cc(C(F)(F)F)c(-c2nc(N3CCOCC3)c3nc(-c4cccc(NS(=O)(=O)CCCF)c4F)ccc3n2)cn1 [CMPD A, N-(3-(2-(6-amino-4-(trifluoromethyl)pyridin-3-yl)-4-morpholinopyrido[3,2-d]pyrimidin-6-yl)-2-fluorophenyl)-3-fluoropropane-1-sulfonamide]
- Cmax [1]: 348 ng/mL
- half-life (oral, 40 mg, Day 15, 40 mg, n=2, mean, read-out: T1/2 (converted)): 35.1 h
- Tmax [1]: 4 h
- AUC(0-t) (oral, 40 mg, steady state, 40 QD mg, n=2, mean, cancer patients, read-out: AUC0-24h): 5890 ng·h/mL
- Cmax [2]: 348 ng/mL
- Tmax [2]: 4 h
- half-life (oral, 80 mg, Day 1, 80 mg, individual subject (other NC), read-out: T1/2 (converted)): 22.4 h
- Cmax (oral, 80 mg, Day 1, 80 mg, individual subjects): 470 ng/mL
- AUC(0-t) (oral, 80 mg, Day 1, 80 mg, n=2, mean, read-out: AUC0-24): 6050 ng·h/mL
- Cmax [3]: 384 ng/mL
- Tmax [3]: 14 h
- half-life (oral, 80 mg, Day 15, 80 mg, individual subject (other NC), read-out: T1/2 (converted)): 48.7 h
- AUC(0-t) (oral, 80 mg, Day 15, 80 mg, individual subjects, read-out: AUC0-24): 19000 ng·h/mL
- Cmax (oral, 80 mg, Day 15, 80 mg, individual subjects): 931 ng/mL
- AUC(0-t) (oral, 80 mg, Day 15, 80 mg, n=2, mean, read-out: AUC0-24): 20100 ng·h/mL
- Cmax [4]: 1060 ng/mL
- Tmax [4]: 14 h
- AUC(0-t) (oral, 80 mg, steady state, 80 QD mg, n=2, mean, cancer patients, read-out: AUC0-24h): 20100 ng·h/mL
- Cmax [5]: 1060 ng/mL
- Tmax [5]: 14 h
- AUC(0-t) (oral, 120 mg, Day 1, 120 mg, n=3, mean, read-out: AUC0-24): 6660 ng·h/mL
- Cmax (oral, 120 mg, Day 1, 120 mg, n=3, mean): 509 ng/mL
- half-life (oral, 120 mg, Day 1, 120 mg, n=3, mean, read-out: T1/2 (converted)): 24.9 h
- Tmax (oral, 120 mg, Day 1, 120 mg, n=3): 4 h
- AUC(0-t) (oral, 120 mg, Day 15, 120 mg, n=3, mean, read-out: AUC0-24): 10100 ng·h/mL
- Cmax (oral, 120 mg, Day 15, 120 mg, n=3, mean): 728 ng/mL
- half-life (oral, 120 mg, Day 15, 120 mg, n=3, mean, read-out: T1/2 (converted)): 24.1 h
- Tmax (oral, 120 mg, Day 15, 120 mg, n=3): 4 h
- Tmax (oral, 120 mg, steady state, 120 QD mg, n=3, cancer patients): 4 h
- AUC(0-t) (oral, 120 mg, steady state, 120 QD mg, n=3, mean, cancer patients, read-out: AUC0-24h): 10100 ng·h/mL
- Cmax (oral, 120 mg, steady state, 120 QD mg, n=3, mean, cancer patients): 728 ng/mL
- AUC(0-t) (oral, 240 mg, Day 1, 240 mg, n=2, mean, read-out: AUC0-24): 6930 ng·h/mL
- Cmax [6]: 520 ng/mL
- half-life (oral, 240 mg, Day 1, 240 mg, n=2, mean, read-out: T1/2 (converted)): 17.5 h
- Tmax [6]: 5 h
- Tmax (oral, 240 mg, Day 15, 240 mg, individual subjects): 2 h
- AUC(0-t) (oral, 240 mg, Day 15, 240 mg, n=2, mean, read-out: AUC0-24): 14900 ng·h/mL
- Cmax [7]: 954 ng/mL
- half-life (oral, 240 mg, Day 15, 240 mg, n=2, mean, read-out: T1/2 (converted)): 19.7 h
- Tmax [7]: 2 h
- AUC(0-t) (oral, 240 mg, steady state, 240 QD mg, n=2, mean, cancer patients, read-out: AUC0-24h): 14900 ng·h/mL
- Cmax [8]: 954 ng/mL
- Tmax [8]: 2 h
- half-life (oral, 400 mg, Day 1, 400 QD mg, individual subjects, read-out: T1/2 (converted)): 15.2 h
- AUC(0-t) (oral, 400 mg, Day 1, 400 QD mg, n=2, mean, read-out: AUC0-24): 15000 ng·h/mL
- Cmax (oral, 400 mg, Day 1, 400 QD mg, n=2, mean): 1070 ng/mL
- half-life (oral, 400 mg, Day 1, 400 QD mg, n=2, mean, read-out: T1/2 (converted)): 15.4 h
- Tmax (oral, 400 mg, Day 1, 400 QD mg, n=2): 2 h
- AUC(0-t) (oral, 400 mg, Day 1, 400 bid mg, individual subjects, read-out: AUC0-24): 32100 ng·h/mL
- Cmax [9]: 2330 ng/mL
- half-life (oral, 400 mg, Day 1, 400 bid mg, individual subjects, read-out: T1/2 (converted)): 22.5 h
- Tmax [9]: 8 h
- AUC(0-t) (oral, 400 mg, Day 1, 400 bid mg, mean, read-out: AUC0-24): 26300 ng·h/mL
- Cmax [10]: 1880 ng/mL
- half-life (oral, 400 mg, Day 1, 400 bid mg, mean, read-out: T1/2 (converted)): 18.6 h
- Tmax [10]: 6 h
- AUC(0-t) (oral, 400 mg, Day 15, 400 QD mg, individual subjects, read-out: AUC0-24): 25500 ng·h/mL
- Cmax (oral, 400 mg, Day 15, 400 QD mg, individual subjects): 2770 ng/mL
- half-life (oral, 400 mg, Day 15, 400 QD mg, individual subjects, read-out: T1/2 (converted)): 10.1 h
- AUC(0-t) (oral, 400 mg, Day 15, 400 QD mg, n=2, mean, read-out: AUC0-24): 33400 ng·h/mL
- Cmax [11]: 2850 ng/mL
- half-life (oral, 400 mg, Day 15, 400 QD mg, n=2, mean, read-out: T1/2 (converted)): 10.9 h
- Tmax [11]: 4.5 h
- AUC(0-t) (oral, 400 mg, Day 15, 400 bid mg, n=1, read-out: AUC0-24): 110000 ng·h/mL
- Cmax [12]: 5900 ng/mL
- Tmax [12]: 2 h
- AUC(0-t) (oral, 400 mg, steady state, 400 BID mg, n=1, cancer patients, read-out: AUC0-24h): 110000 ng·h/mL
- Cmax [13]: 5990 ng/mL
- Tmax [13]: 2 h
- AUC(0-t) (oral, 400 mg, steady state, 400 QD mg, n=2, mean, cancer patients, read-out: AUC0-24h): 33400 ng·h/mL
- Cmax [14]: 2850 ng/mL
- Tmax [14]: 4.5 h
- half-life (po, human subjects, oral tablets, read-out: Effective t½ (converted)): ~24 h
- half-life (po, human subjects, oral tablets, read-out: t1/2 (rate of elimination)): 10 to 25 h
- Cmin (steady state, 10 QD mg, n=1, cancer patients): 16.0 ng/mL
- Cmin (steady state, 20 QD mg, n=1, cancer patients): 76.4 ng/mL
- Cmin (steady state, 40 QD mg, n=2, mean, cancer patients): 167 ng/mL
- Cmin (steady state, 80 QD mg, n=2, mean, cancer patients): 614 ng/mL
- Cmin (steady state, 120 QD mg, n=3, mean, cancer patients): 239 ng/mL
- Cmin (steady state, 240 QD mg, n=2, mean, cancer patients): 463 ng/mL
- Cmin (steady state, 400 BID mg, n=1, cancer patients): 3718 ng/mL
- Cmin (steady state, 400 QD mg, n=2, mean, cancer patients): 589 ng/mL
